≈ marks a conversion by molar mass, not a printed value.
Legend:
Test in all cases: MIC, Staphylococcus panel (9.2)
Assay type in all cases: cell-based
[1] = system: Staphylococcus capitis (CHUG-Scap4); conditions: S. capitis CHUG-Scap4, 4% DMSO, 18 h
Experimental: (§1) The microdilution method recommended by the Clinical and Laboratory Standard Institute [M07-A9, Vol. 32, N° 2] was used. The activity of bis-indolic compounds 3f and 4 was tested against 35 Staphylococcus bacterial strains corresponding to 12 different species,
(§2) Bacterial inocula were prepared in Mueller Hinton broth (MH2, BioMérieux, Marcy L'Etoile, France). They were dispensed in 96 well microtiter plates (5×10^5 CFU/ml of final inoculum, 192 μL per well). Indolic compounds diluted in pure DMSO (8 μL per well, concentrated 25 times) were added to the wells as to obtain two-fold serial concentrations (0.5-32 mg/L of final concentrations). The final concentration of DMSO was 4% in each well.
(§3) To avoid cross-contaminations in microtiter plates, one row was left blank between each strain tested. Microplates were incubated for 18 h at 37° C. in ambient air. Then MICs were read visually and, in case of visual reading difficulties, confirmed using a spectrophotometer at a wavelength of 630 nm (BioTek® EL808 Absorbance Microplate Reader). MICs corresponded to the minimum bis-indolic compound concentration that allowed complete visual growth inhibition of bacteria. Drug-free cultures served as growth controls.
(§4) Coagulase-negative Staphylococcus strains included three reference strains purchased from CRBIP: a methicillin-susceptible S. epidermidis strain (ATCC 12228), a methicillin-resistant S. epidermidis strain (ATCC 49461), and a methicillin-susceptible S. sciuri strain (ATCC 29061). We also used clinical strains belonging to the following coagulase-negative Staphylococcus species: S. auricularis (two strains), S. warneri (five strains), S. capitis (five strains), S. haemolyticus (four strains), S. hominis (seven strains), S. cohnii (two strains), and S. saprophyticus, S. caprae and S. simulans (one strain each). Identification of the clinical strains was obtained using VITEK® 2 System (Biomérieux). The specified strain numbers correspond to an internal number of the bacterial strain collection of our laboratory.

[2] = system: Staphylococcus haemolyticus (CHUG-Shae5); conditions: S. haemolyticus CHUG-Shae5, 4% DMSO, 18 h
Experimental: as §1, §2, §3, §4

[3] = system: Staphylococcus hominis (CHUG-Shom5); conditions: S. hominis CHUG-Shom5, 4% DMSO, 18 h
Experimental: as §1, §2, §3, §4

[4] = system: Staphylococcus simulans (CHUG-Ssim1); conditions: S. simulans CHUG-Ssim1, 4% DMSO, 18 h
Experimental: as §1, §2, §3, §4

[5] = system: Staphylococcus aureus ATCC 106414 (VISA); conditions: 18 h
Experimental: as §1, §2, §3
Four Staphylococcus aureus strains were used. Two reference strains were provided by the French reference center for Staphylococcus spp. (Lyon, France), including one methicillin-susceptible (MSSA 476) and one methicillin-resistant (MRSA 252) S. aureus strains. The two remaining S. aureus strains were purchased from the CRBIP (Centre de Ressources Biologiques de l'Institut Pasteur): a vancomycin-intermediate strain (ATCC 106414) and a S. aureus strain (SA-1199B) resistant to fluoroquinolones due to overexpression of the NorA multidrug efflux pump.

Row | SMILES | MIC [1] [µg/mL] | MIC [2] [µg/mL] | MIC [3] [µg/mL] | MIC [4] [µg/mL] | MIC [5] [µg/mL]
1 | CC(C)(C)OC(=O)NCC(NC(=O)c1c[nH]c2ccc(Br)cc12)c1c[nH]c2ccc(Br)cc12 (centres unmarked) [Compound 3f, tert-Butyl(2-(5-bromo-1H-indol-3-yl)-2-(5-bromo-1H-indolyl-3-carboxamido)ethyl)carbamate] | 4 (≈ 6.94 µM) | 16 (≈ 27.8 µM) | 8 (≈ 13.9 µM) | 16 (≈ 27.8 µM) | 
2 | CC(NC(=O)c1c[nH]c2ccc(Br)cc12)c1c[nH]c2ccc(Br)cc12 (centres unmarked) [Compound 4, 5-Bromo-N-(1-(5-bromo-1H-indol-3-yl)ethyl)-1H-indole-3-carboxamide] |  |  |  |  | 1 (≈ 2.17 µM)

From patent publication US9676715B2, “Bis-indolic derivatives, a process for preparing the same and their uses as a drug” (UNIVERSITE JOSEPH FOURIER, priority 2011, dated 2017)
